In patent publication EP0009325A1, “Erythritol cointaining anti-caries compositions” (PFIZER INC., priority 1978, dated 1980):
Like-named read-outs stand apart in the source and are kept apart here.

Key:
[1] = tested on: Streptococcus mutans strain GS-5; test: Lactic acid production (Sigma kit, NADH absorbance); format: cell-based; details: 0.7% concentration; relative to "no compound" control; column 9 of Table I
Procedure: (§1) All compounds used in the test were in 0.7% concentration. The same concentrations were used to determine acid production in a salivary system. Streptococcus mutans strain GS-5, a human cariogenic strain, was used in all cases except the salivary test system in which the endogenous flora was used.
Lactic acid production was measured using the Sigma Kit for determination of lactic acid. This procedure measures the amount of lactic acid by the following reaction: [drawing 1] NAD is originally present-in excess and the increase absorbance of […] due to NADH formation becomes a measure of lactic acid originally present.
The next six columns refer to certain effects on the metabolism of the bacteria. Columns 4-8 represent measures of the activity of an enzyme (or group of enzymes) called dextran-sucrase (DSU) which is one of the principle sources of the cariogenicity of this organism. DSU converts dietary sugar into polymers which are a major ingredient of cariogenic dental plaque. Such plaque is an accumulation of these polymers, playing an essential role in caries formation and periodontal disease. Therefore, a reduction in plaque formation by means of a reduction'in DSU activity is a desired effect. […] In column 9, lactic acid production is measured. […]

[2] = humans; cited from earlier work
[3] = cited from earlier work
[4] = tested on: Streptococcus mutans strain GS-5; test: Growth of S. mutans GS-5 in nutrient medium (Klett optical density, doubling time, final pH); format: cell-based; details: 0.7% concentration; 37°C; columns 1-3 of Table I
Procedure: as §1
Klett tubes containing a tryticase-soy-yeast- cysteine nutrient and fitted with septum caps werg flushed with nitrogen gas and preincubated 30 minutes at 37°C using standard sterile technicuies, then in- noculated with a 2% innoculum of a suspension of S. mutans GS-5 cells in phosphate buffer. These were then incubated at 37°C. Optical density was measured by Klett readings (red filter) at half hour intervals.
The first three columns in the table refer to effects of the compounds on the growth characteristics of a cariogenic strain of the bacteria Streptococcus mutans. Reduction of total growth (lowered final Klett), reduction of growth rate (increase in doubling time) and reduction of acid produced (increase in final pH) are the effects desired.

dextran-sucrase (DSU) = test: Dextran-sucrase (DSU) activity of S. mutans; format: cell-based, Streptococcus mutans; details: 0.7% concentration; for dextran-sucrase (DSU) activity: columns 4-8 of Table I
Description: as §1
The next six columns refer to certain effects on the metabolism of the bacteria. Columns 4-8 represent measures of the activity of an enzyme (or group of enzymes) called dextran-sucrase (DSU) which is one of the principle sources of the cariogenicity of this organism. DSU converts dietary sugar into polymers which are a major ingredient of cariogenic dental plaque. Such plaque is an accumulation of these polymers, playing an essential role in caries formation and periodontal disease. Therefore, a reduction in plaque formation by means of a reduction'in DSU activity is a desired effect. In particular, a reduction in "mean specific DSU activity" - that is, amount of activity per bacterial cell - is desired since that would imply a real effect on the organisms' metabolism instead of merely a reduction in the number of cells. […] Erythritol, however, is the best in the critical measure "DSU mean specific activity (column 8). In column 9, lactic acid production is measured. Lactic acid, produced by cariogenic bacteria in response to ingestion of a meal, can increase acidity enough to dissolve tooth mineral and initiate caries. Therefore, reduction in lactic acid production is desirable. […] Finally, in the last column (10) are measures of the effect on the pH of natural saliva. In this case, the natural mixed population of bacteria is used instead of a pure culture of one strain as in the previous columns. A positive number (pH increase, corresponding to reduced acidity) is the desired result.

endogenous flora = test: Salivary test system: pH change of pooled saliva; format: cell-based, human saliva; details: final concentration 0.7%; anaerobic, 37°C, four hours; column 10 of Table I
Procedure: as §1
For the salivary test system, saliva was pooled from volunteers who had fasted three hours and the pH of the pooled saliva was noted. 4.95 ml of pool saliva was aseptically transferred to a series of sterile test tubes. […] of each compound were prepared and sterilized. 0.05 ml of each was aseptically added to the test tube of saliva to give a final concentration of 0.7%. The test tubes were incubated anaerobically ! at 37°C for four hours. The pH of each was then measured.
The next six columns refer to certain effects on the metabolism of the bacteria. Columns 4-8 represent measures of the activity of an enzyme (or group of enzymes) called dextran-sucrase (DSU) which is one of the principle sources of the cariogenicity of this organism. DSU converts dietary sugar into polymers which are a major ingredient of cariogenic dental plaque. Such plaque is an accumulation of these polymers, playing an essential role in caries formation and periodontal disease. […] In column 9, lactic acid production is measured. […]

[5] = tested on: enzymes responsible for dental caries formation; details: cited from earlier work
[6] = cited from earlier work; remark: listed apart in the source
dental caries [7] = details: cited from earlier work
dental caries [8] = details: in diet, man; cited from earlier work
dental caries [9] = details: compared with mannitol or sorbitol; cited from earlier work

## OC[C@@H](O)[C@@H](O)CO [erythritol]
[1]
  lactic acid production: only substance which reduced lactic acid
[2]
  metabolism after oral ingestion: not significantly metabolized
[3]
  saturated solution in water: about 38 % w/w
[4]
  growth characteristics: total growth (final Klett), growth rate (doubling time), acid produced (final pH): closely following
dextran-sucrase (DSU); activity per bacterial cell, column 8 of Table I
  DSU mean specific activity: the best
dextran-sucrase (DSU)
  dextran-sucrase (DSU) activity: superior to the other substances tested
Endogenous flora
  effect on the pH of natural saliva: best substance in the test

## OC[C@@H](O)[C@@H](O)[C@H](O)[C@H](O)CO [mannitol]
[5]
  formation of enzymes responsible for dental caries formation: retarded

## OC[C@@H](O)[C@@H](O)[C@H](O)[C@@H](O)CO [sorbitol]
[6]; rat, in vivo
  diarrhea: caused diarrhea
Dental caries [7]; rat, in vivo
  drinking water intake: increased drinking water intake
[5]
  formation of enzymes responsible for dental caries formation: retarded

## OC[C@@H](O)[C@H](O)[C@@H](O)CO [xylitol]
Dental caries [8]
  incidence of dental caries: dramatic reduction in the incidence of dental caries
[1]
  lactic acid production: superior to the other test substances
[6]; rats
  diarrhea: caused diarrhea
Dental caries [7]; rats
  drinking water intake: increased drinking water intake
  preventing dental caries: more effective than sorbitol
[4]
  growth characteristics: total growth (final Klett), growth rate (doubling time), acid produced (final pH): best results
dextran-sucrase (DSU)
  dextran-sucrase (DSU) activity: superior to the other substances tested
[5]
  formation of enzymes responsible for dental caries formation: retarded
Dental caries [9]
  reducing the incidence of dental caries: appreciably more effective
Endogenous flora
  effect on the pH of natural saliva: superior to the other test substances
